Laboratory results taken from patent US8709710B2, “Methods of modulating interleukin-22 and immune response by notch regulators” (Deutsches Rheuma-Forschungszentrum Berlin, priority 2009, dated 2014).

System: human T helper cells
Assay: IL-22 expression in human T helper cells activated with anti-CD3/anti-CD28 microparticles and recombinant Delta-like 4
Type: cell-based
Settings: increasing concentrations of Delta-like 4 on microparticles; no antigen-presenting cells; restimulated after 5 days; FIG. 6
Procedure: Naive, i.e. antigen-inexperienced, human T helper cells are activated in the absence of antigen-presenting cells with microparticles loaded with stimulating anti-CD3 and anti-CD28 antibodies and increasing concentrations of recombinantly produced Delta-like 4. After 5 days the cells are restimulated and the expression of IL-22 is analyzed.

**Q.** For “Delta-like 4: recombinantly produced Notch ligand Delta-like 4, loaded on microparticles”, which “expression of IL-22” value is on record?
**A.** Its value is “concentration-dependent expression of IL-22”.
